Laboratory results taken from patent publication US4241066A, “14-Amino derivatives of morphine, methods of making them and analgesic compositions containing them” (priority 1977, dated 1980).

Key:
opiate receptor [1] = target: T1, opiate receptor (Rattus norvegicus, UniProt P33535); format: in vivo; settings: tail flick, hot water bath 55° C., administered subcutaneously
T1 construct: from tissue; host or cells: living rat (whole animal, subcutaneous dosing)
Protocol: (§1) Chemother., 6, 572 (1951) and for morphine antagonist activity in rat using a tail flick test modified from the method described for mice by Ben Bassat et al (Arch Int. Pharmacoldyn. 122, 434 [1959]). The nociceptive stimulus in this test is a hot water bath (55° C.).

opiate receptor [2] = assay: in vivo agonist test in the rat, tail pressure as nociceptive stimulus (Green and Young); settings: administered subcutaneously
Protocol: as §1, with “The compounds have been screened for agonist activity in the rat using tail pressure as the nociceptive stimulus as described by Green, H. F., and Young, P. A., Br. J. Pharmac. Chemother.,” for “Chemother.,”

T1 sequence (P33535 whole entry): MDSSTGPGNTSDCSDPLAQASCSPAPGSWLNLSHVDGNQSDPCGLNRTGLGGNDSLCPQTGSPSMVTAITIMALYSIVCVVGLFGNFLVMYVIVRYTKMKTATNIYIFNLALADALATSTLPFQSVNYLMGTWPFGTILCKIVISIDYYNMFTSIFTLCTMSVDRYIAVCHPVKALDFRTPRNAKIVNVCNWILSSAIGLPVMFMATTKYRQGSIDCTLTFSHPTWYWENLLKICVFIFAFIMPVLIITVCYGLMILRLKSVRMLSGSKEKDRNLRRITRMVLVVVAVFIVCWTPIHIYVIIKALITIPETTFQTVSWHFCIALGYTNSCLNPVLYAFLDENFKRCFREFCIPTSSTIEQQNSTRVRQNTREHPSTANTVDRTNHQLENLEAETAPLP

Structure (SMILES) | AD50 (morphine antagonist) (opiate receptor [1]) [mg/kg] | ED50 (agonist, antinociceptive) (opiate receptor [2]) [mg/kg]
O=CN[C@@]12C=CC(=O)[C@@H]3Oc4c(O)ccc5c4[C@@]31CCN(CC1CC1)[C@@H]2C5 [Example 49] | 0.132 | 
O=C1C=C[C@@]2(NCC3CC3)[C@H]3Cc4ccc(O)c5c4[C@@]2(CCN3CC2CC2)[C@H]1O5 [Example 48] | 0.0027 | 
CCCCCC(=O)N[C@@]12C=CC(=O)[C@@H]3Oc4c(O)ccc5c4[C@@]31CCN(CC1CC1)[C@@H]2C5 [Example 54] |  | 0.0036
CN1CC[C@]23c4c5ccc(O)c4O[C@H]2[C@@H](O)C=C[C@H]3[C@H]1C5 [morphine] |  | 0.66
CCCCCCN[C@@]12C=CC(=O)[C@@H]3Oc4c(OC)ccc5c4[C@@]31CCN(CC1CC1)[C@@H]2C5 [Example 38] |  | 1.92
